# Assay results: PubChem BioAssay AID1963430 (Molecular Pharmacology Branch, DTP, NCI, 2024)
# Test system: 521955-158-R2-J5-PDC complex spheroid growth, % test/control
# Assay: Anticancer human tumor 521955-158-R2-J5-PDC patient-derived pancreatic carcinoma cell line growth inhibition [Asc]
# Settings: for IC50: curve of first compound; for viability, T/C: stronger effect = lower value
# Method: Multicellular complex tumor spheroid response to apoptosis pathway targeting inhibitors Alrizomadlin, Pelcitoclax, and Dasminapant in combination with a variety of drugs and investigational agents in selected tumor cell lines
# The MDM2 inhibitor alrizomadlin, the Bcl-2/Bcl-xL inhibitor pelcitoclax, and the IAPs inhibitor dasminapant were evaluated both individually and in combination with standard of care and investigational anticancer small molecules within a complex spheroid model of solid tumors. . Complex spheroids include a stromal component modeled by human endothelial cells (HUVEC) and fibroblasts modeled by human mesenchymal stem cells (MSCs). The concentration ranges selected for each drug and investigational agent were based upon clinically achievable concentrations if the clinical Cmax of the agent was known.
# Compounds. The drugs and investigational agents: alrizomadlin (APG-115; NSC831270), pelcitoclax (APG-1252; NSC835773), dasminapant (APG-1387;NSC834197), TAK-243 (NSC785004), copanlisib (NSC809693), olaparib (NSC753686), talazoparib (NSC767125), cobimetinib (NSC 768068), eltanexor (KPT-8602, NSC 794443), abemaciclib (NSC 768073), sotorasib (NSC818433), adagrasib (NSC 831453), MRTX-1133 (NSC 836407), Iadademestat (ORY1001, NSC 806812), and RMC-4630 (NSC839698), were obtained from the NCI Developmental Therapeutics Program Chemical Repository. The FDA-approved anticancer drug set is available from the Developmental Therapeutics Program at https://dtp.cancer.gov/organization/dscb/obtaining/available plates.htm. […] The stock solutions were prepared in dimethyl sulfoxide (DMSO, Sigma-Aldrich, St. Louis, MO, cat. D2650) at 800-fold the tested concentration and stored at -70 degrees C prior to their use. All drugs and investigational agents were tested over a range starting from a high concentration at or near the clinical Cmax and decreasing in half-log increments. If the clinical Cmax for an agent had not been determined, the highest concentration tested was 10 microM.
# The patient-derived cancer (PDC) cell lines include five colon adenocarcinomas: 186277-243-T-J2-PDC, 616215-338-R-J1-PDC, 439559-082-T-J2-PDC, 463943-066-T-J2-PDC, and 519858-162-T-J1-PDC; three pancreatic carcinomas: 323965-272-R-J2-PDC, 521955-158-R6-J3-PDC, and 521955-158-R2-J5-PDC; two uterine sarcomas: 327498-152-R-J2-PDC and 993429-296-R-J1-PDC; two rhabdomyosarcomas: 755483-174-R-J1-PDC and 772245-204-R-J1-PDC; two soft tissue sarcomas: 126254-015-R-J1-PDC and 494315-158-R-J1-PDC; two malignant fibrous histiocytomas: 317291-083-R-J1-PDC and 596521-263-R-J1-PDC; two breast carcinomas: 171881-019-R-J1-PDC and 885512-296-R-J2-PDC; and one ovarian carcinoma: 6556581-035-R-J-PDC were obtained from the NCI PDMR, (https://pdmr.cancer.gov). The established cell lines HSSY-2 synovial sarcoma (RRID:CVCL 8719), SYO-1 synovial sarcoma (RRID:CVCL_7146), MPNST malignant peripheral neural sheath tumor were obtained from the Sloan Kettering Institute. The following established cell lines were purchased from the American Type Culture Collection (ATCC, Manassas, VA), Sor the received from the NCI repository:, PANC-1 pancreatic carcinoma (CRL-1469, RRID:CVCL_0480), OVCAR-5 ovarian carcinoma (RRID:CVCL_1628), OVCAR-8 ovarian carcinoma (RRID:CVCL_1629), , MCF-7 breast carcinoma (CRL-12584, RRID:CVCL_0031), MDA-MB-231 breast carcinoma (CRL-12532, RRID:CVCL_0062), NCI-H1876 small cell lung carcinoma (CRL-5902, RRID:CVCL_1503), NCI-H510A small cell lung carcinoma (HTB-184, RRID:CVCL_1565), NCI-H1417 (CRL-5869, RRID:CVCL_1469), and NCI-H196 small cell lung carcinoma (CRL-5823, RRID:CVCL_1509). Dr. Peter Houghton (Greehey Children's Cancer Research Institute, University of Texas Health Science Center, San Antonio, TX) provided Rh-18 rhabdomyosarcoma (RRID:CVCL_1659). Pooled donor human umbilical vein endothelial cells (HUVEC, Lonza, cat. CC-2519) and human mesenchymal stem cells (hMSC, Lonza, cat. PT-2501) were purchased from Lonza (Walkersville, MD).
# Cell Culture. […]
# 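Further: spheroids exposed to agents for 7 days before readout.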
# 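Wherever viability, T/C is given: 100% = DMSO vehicle control viability.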
structure (smiles),measurement,setting,value
C#Cc1c(F)ccc2cc(O)cc(-c3ncc4c(N5CC6CCC(C5)N6)nc(OCC56CCCN5CC(F)C6)nc4c3F)c12 (stereo not given) + CCN1C(C(=O)NC23CCC(C(=O)O)(CC2)CC3)C(c2cccc(Cl)c2F)C2(C(=O)Nc3cc(Cl)ccc32)C12CCCCC2,IC50,second compound 0.03 µM,< 31.6 nM
same,IC50,second compound 0.0949 µM,< 31.6 nM
same,IC50,second compound 0.3 µM,< 31.6 nM
same,IC50,second compound 0.949 µM,< 31.6 nM
same,IC50,second compound 3 µM,4990 nM
same,"viability, T/C","second compound 0.03 µM, first compound 0.0316 µM",53%
same,"viability, T/C","second compound 0.03 µM, first compound 0.1 µM",41.6%
same,"viability, T/C","second compound 0.03 µM, first compound 0.316 µM",33.2%
same,"viability, T/C","second compound 0.03 µM, first compound 1 µM",35.1%
same,"viability, T/C","second compound 0.03 µM, first compound 3.16 µM",35.5%
same,"viability, T/C","second compound 0.03 µM, first compound 10 µM",32%
same,"viability, T/C","second compound 0.0949 µM, first compound 0.0316 µM",48.1%
same,"viability, T/C","second compound 0.0949 µM, first compound 0.1 µM",39.8%
same,"viability, T/C","second compound 0.0949 µM, first compound 0.316 µM",44.4%
same,"viability, T/C","second compound 0.0949 µM, first compound 1 µM",38%
same,"viability, T/C","second compound 0.0949 µM, first compound 3.16 µM",41.7%
same,"viability, T/C","second compound 0.0949 µM, first compound 10 µM",43.9%
same,"viability, T/C","second compound 0.3 µM, first compound 0.0316 µM",45.9%
same,"viability, T/C","second compound 0.3 µM, first compound 0.1 µM",44%
same,"viability, T/C","second compound 0.3 µM, first compound 0.316 µM",39.9%
same,"viability, T/C","second compound 0.3 µM, first compound 1 µM",40.4%
same,"viability, T/C","second compound 0.3 µM, first compound 3.16 µM",42.9%
same,"viability, T/C","second compound 0.3 µM, first compound 10 µM",39.2%
same,"viability, T/C","second compound 0.949 µM, first compound 0.0316 µM",42.7%
same,"viability, T/C","second compound 0.949 µM, first compound 0.1 µM",50.6%
same,"viability, T/C","second compound 0.949 µM, first compound 0.316 µM",56.3%
same,"viability, T/C","second compound 0.949 µM, first compound 1 µM",41.1%
same,"viability, T/C","second compound 0.949 µM, first compound 3.16 µM",54.8%
same,"viability, T/C","second compound 0.949 µM, first compound 10 µM",42.4%
same,"viability, T/C","second compound 3 µM, first compound 0.0316 µM",70.1%
same,"viability, T/C","second compound 3 µM, first compound 0.1 µM",68.9%
same,"viability, T/C","second compound 3 µM, first compound 0.316 µM",66%
same,"viability, T/C","second compound 3 µM, first compound 1 µM",59.1%
same,"viability, T/C","second compound 3 µM, first compound 3.16 µM",55.1%
same,"viability, T/C","second compound 3 µM, first compound 10 µM",43.8%
